Reference: paper PMC11206396 (Chemical Science, 2024)
Read-outs that look alike come from different tables or passages of the source. Positions of bridges follow the written chain, without caps; N, C: chain ends. Residues, ends and D or L forms follow the SMILES beside them. Chains are numbered I, II in the order given. *: point of attachment. X5 = Cc1cc(NC(=O)CCC(=O)O)ccc1-c1cc(CN2CCN(CC(=O)O)CCN(CC(=O)O)CCN(CC(=O)O)CC2)nc(C(=O)*)c1; X2 = CC(=O)Nc1ccc(-c2cc(CN3CCN(CC(=O)O)CCN(CC(=O)O)CCN(CC(=O)O)CC3)nc(C(=O)*)c2)c(C)c1; X4 = Cc1cc(NC(=O)CCN)ccc1-c1cc(CN2CCN(CC(=O)O)CCN(CC(=O)O)CCN(CC(=O)O)CC2)nc(C(=O)*)c1; X1 = CC(=O)Nc1ccc(-c2cc(CN3CCN(CC(=O)O)CCN(CC(=O)O)CCN(CC(=O)O)CC3)nc(C(=O)*)c2)cc1; X3 = COc1ccc(-c2cc(CN3CCN(CC(=O)O)CCN(CC(=O)O)CCN(CC(=O)O)CC3)nc(C(=O)*)c2)c(C)c1

Tests used:
HEK293T cells = assay: Two-photon microscopy (2PM) imaging of live cells: internalization and cytosolic delivery; type: cell-based; conditions: 1 h, 10 μM
Experimental: (§1) Fig. 7 2PM imaging (λex = 720 nm) of living HEK293T (A) and MRC5 (B) cells incubated 1 h with dTAT[Eu·L-Ar-NHAc] (10 μM) in RPMI medium. Top: DIC, emission recorded using a 465–680 nm bp filter and merge; Bottom: linear unmixing of autofluorescence (AF) and Eu^3+ emission and merge. Scale bars correspond to 10 μm. […]
(§2) dependence for each sample (Fig. S9), the incident power was adjusted to 35 mW to characterize the two-photon absorption spectra. Calibration of the 2P absorption spectra was performed at each excitation wavelength by comparison with that of fluorescein (10 µM, pH 11) as reference compound.[12]
(§3) General: HeLa, MRC5 and HEK293 cell lines were purchased from the ATCC and agreed by French ethic boards […]
(§4) Cell culture: HeLa cells were grown in RPMI medium supplemented with 10% fetal bovine serum (v/v) at 37°C in a 5% CO2 humidified atmosphere.
(§5) Peptides delivery in live cells: HeLa cells were seeded at 3´10^4 cells/well onto an 8-chamber Labtek-I coverglass system.
(§6) After 24 h, cells were washed three times with PBS. Cells were incubated with dTAT [Ln·L] (10 µM) in RPMI medium (without phenol red and without serum) or PBS at 37°C for 1 h. […]
(§7) Temporal Sampling Lifetime Imaging Microscopy (TSLIM) was used to record luminescence lifetime decay in cells (single pulsed excitation with the 7.56 μs temporal resolution).[13] […]

MRC5 cells = assay: as above; type: cell-based; conditions: 1 h, 10 μM
Experimental: as §1, §2, §3, §4, §5, §6, §7

HeLa cells [1] = assay: MTT proliferation assay (cytotoxicity)
HeLa cells [2] = assay: Two-photon microscopy (2PM) imaging of live cells: internalization and cytosolic delivery; type: cell-based; conditions: for co-internalization of a Tb3+/Eu3+ probe mixture: 1 h, Tb probe 10 μM + dTAT[Eu·L-Ar-NHAc] 5 μM; for co-internalization of a Tb3+/Eu3+ probe mixture / cytosolic delivery (diffuse Ln3+ emission): 2P excitation 720 nm; for cytosolic delivery (diffuse Ln3+ emission): 10 μM
[3] = live HeLa cells, 1 h incubation
[4] = read-out: IC50 (concentration causing a 50% reduction in proliferation), MTT proliferation assay, 2 h incubation

| Compound | co-internalization of a Tb3+/Eu3+ probe mixture (HeLa cells [2]; HeLa cells) | cytosolic delivery (diffuse Ln3+ emission) (HeLa cells [2]; [3]) | IC50 (HeLa cells [1]; [4]) [µM] | other results |
| --- | --- | --- | --- | --- |
| CC(=O)Nc1ccc(-c2cc(CN3CCN(CC(=O)O)CCN(CC(=O)O)CCN(CC(=O)O)CC3)nc(C(=O)NCCCC[C@H](NC(=O)[C@@H](N)CSSC[C@H](N)C(=O)N[C@@H](CCCCNC(=O)c3cc(-c4ccc(NC(C)=O)cc4)cc(CN4CCN(CC(=O)O)CCN(CC(=O)O)CCN(CC(=O)O)CC4)n3)C(=O)N[C@@H](CCCNC(=N)N)C(=O)N[C@@H](CCCCN)C(=O)N[C@@H](CCCCN)C(=O)N[C@@H](CCCNC(=N)N)C(=O)N[C@@H](CCCNC(=N)N)C(=O)N[C@@H](CCC(N)=O)C(=O)N[C@@H](CCCNC(=N)N)C(=O)N[C@@H](CCCNC(=N)N)C(=O)N[C@@H](CCCNC(=N)N)C(=O)NCC(N)=O)C(=O)N[C@@H](CCCNC(=N)N)C(=O)N[C@@H](CCCCN)C(=O)N[C@@H](CCCCN)C(=O)N[C@@H](CCCNC(=N)N)C(=O)N[C@@H](CCCNC(=N)N)C(=O)N[C@@H](CCC(N)=O)C(=O)N[C@@H](CCCNC(=N)N)C(=O)N[C@@H](CCCNC(=N)N)C(=O)N[C@@H](CCCNC(=N)N)C(=O)NCC(N)=O)c2)cc1 [dTAT[Eu·L-Ar-NHAc]] (I: H-CK(X1)RKKRRQRRRG-NH2 / II: H-CK(X1)RKKRRQRRRG-NH2; disulfide I:1-II:1; N-terminus assumed) | co-internalized | cytosolic delivery | – | cytosolic delivery (diffuse Eu3+ localization) (HEK293T cells): successful cytosolic delivery; cytosolic delivery (diffuse Eu3+ localization) (MRC5 cells): successful cytosolic delivery; toxicity at the concentration used for 2PM (HeLa cells [1]; MTT assay, 10 μM): no toxicity; number of cells showing cytosolic staining (diffuse Eu3+ emission) (HeLa cells [2]; HeLa cells, 5 μM, 1 h incubation, over 6 hours after washing, determined visually): 34–38%; cell staining pattern at low concentration (HeLa cells [2]; live HeLa cells, 2.5 μM, 1 h incubation): only show punctate Eu^3+ around the nucleus |
| CC(=O)Nc1ccc(-c2cc(CN3CCN(CC(=O)O)CCN(CC(=O)O)CCN(CC(=O)O)CC3)nc(C(=O)NCCCC[C@H](NC(=O)[C@@H](N)CSSC[C@H](N)C(=O)N[C@@H](CCCCNC(=O)c3cc(-c4ccc(NC(C)=O)cc4C)cc(CN4CCN(CC(=O)O)CCN(CC(=O)O)CCN(CC(=O)O)CC4)n3)C(=O)N[C@@H](CCCNC(=N)N)C(=O)N[C@@H](CCCCN)C(=O)N[C@@H](CCCCN)C(=O)N[C@@H](CCCNC(=N)N)C(=O)N[C@@H](CCCNC(=N)N)C(=O)N[C@@H](CCC(N)=O)C(=O)N[C@@H](CCCNC(=N)N)C(=O)N[C@@H](CCCNC(=N)N)C(=O)N[C@@H](CCCNC(=N)N)C(=O)NCC(N)=O)C(=O)N[C@@H](CCCNC(=N)N)C(=O)N[C@@H](CCCCN)C(=O)N[C@@H](CCCCN)C(=O)N[C@@H](CCCNC(=N)N)C(=O)N[C@@H](CCCNC(=N)N)C(=O)N[C@@H](CCC(N)=O)C(=O)N[C@@H](CCCNC(=N)N)C(=O)N[C@@H](CCCNC(=N)N)C(=O)N[C@@H](CCCNC(=N)N)C(=O)NCC(N)=O)c2)c(C)c1 [dTAT[Tb·L-^MeAr-NHAc]] (I: H-CK(X2)RKKRRQRRRG-NH2 / II: H-CK(X2)RKKRRQRRRG-NH2; disulfide I:1-II:1) | – | cytosolic delivery | 7.6 ± 1.6 | IC50 (HeLa cells [1]; read-out: IC50 (concentration causing a 50% reduction in proliferation), MTT proliferation assay, 2 h incubation, listed as dTAT[Tb·L-^MeAr-HNAc]): < 10 µM |
| Cc1cc(NC(=O)CCC(=O)O)ccc1-c1cc(CN2CCN(CC(=O)O)CCN(CC(=O)O)CCN(CC(=O)O)CC2)nc(C(=O)NCCCC[C@H](NC(=O)[C@@H](N)CSSC[C@H](N)C(=O)N[C@@H](CCCCNC(=O)c2cc(-c3ccc(NC(=O)CCC(=O)O)cc3C)cc(CN3CCN(CC(=O)O)CCN(CC(=O)O)CCN(CC(=O)O)CC3)n2)C(=O)N[C@@H](CCCNC(=N)N)C(=O)N[C@@H](CCCCN)C(=O)N[C@@H](CCCCN)C(=O)N[C@@H](CCCNC(=N)N)C(=O)N[C@@H](CCCNC(=N)N)C(=O)N[C@@H](CCC(N)=O)C(=O)N[C@@H](CCCNC(=N)N)C(=O)N[C@@H](CCCNC(=N)N)C(=O)N[C@@H](CCCNC(=N)N)C(=O)NCC(N)=O)C(=O)N[C@@H](CCCNC(=N)N)C(=O)N[C@@H](CCCCN)C(=O)N[C@@H](CCCCN)C(=O)N[C@@H](CCCNC(=N)N)C(=O)N[C@@H](CCCNC(=N)N)C(=O)N[C@@H](CCC(N)=O)C(=O)N[C@@H](CCCNC(=N)N)C(=O)N[C@@H](CCCNC(=N)N)C(=O)N[C@@H](CCCNC(=N)N)C(=O)NCC(N)=O)c1 [dTAT[Tb·L-^MeAr-NHSuc(−)]] (I: H-CK(X5)RKKRRQRRRG-NH2 / II: H-CK(X5)RKKRRQRRRG-NH2; disulfide I:1-II:1) | – | efficiently delivered to the cytosol | – | – |
| Cc1cc(NC(=O)CCN)ccc1-c1cc(CN2CCN(CC(=O)O)CCN(CC(=O)O)CCN(CC(=O)O)CC2)nc(C(=O)NCCCC[C@H](NC(=O)[C@@H](N)CSSC[C@H](N)C(=O)N[C@@H](CCCCNC(=O)c2cc(-c3ccc(NC(=O)CCN)cc3C)cc(CN3CCN(CC(=O)O)CCN(CC(=O)O)CCN(CC(=O)O)CC3)n2)C(=O)N[C@@H](CCCNC(=N)N)C(=O)N[C@@H](CCCCN)C(=O)N[C@@H](CCCCN)C(=O)N[C@@H](CCCNC(=N)N)C(=O)N[C@@H](CCCNC(=N)N)C(=O)N[C@@H](CCC(N)=O)C(=O)N[C@@H](CCCNC(=N)N)C(=O)N[C@@H](CCCNC(=N)N)C(=O)N[C@@H](CCCNC(=N)N)C(=O)NCC(N)=O)C(=O)N[C@@H](CCCNC(=N)N)C(=O)N[C@@H](CCCCN)C(=O)N[C@@H](CCCCN)C(=O)N[C@@H](CCCNC(=N)N)C(=O)N[C@@H](CCCNC(=N)N)C(=O)N[C@@H](CCC(N)=O)C(=O)N[C@@H](CCCNC(=N)N)C(=O)N[C@@H](CCCNC(=N)N)C(=O)N[C@@H](CCCNC(=N)N)C(=O)NCC(N)=O)c1 [dTAT[Tb·L-^MeAr-NHβAla(+)]] (I: H-CK(X4)RKKRRQRRRG-NH2 / II: H-CK(X4)RKKRRQRRRG-NH2; disulfide I:1-II:1) | co-internalized | efficiently delivered to the cytosol | – | – |
| COc1ccc(-c2cc(CN3CCN(CC(=O)O)CCN(CC(=O)O)CCN(CC(=O)O)CC3)nc(C(=O)NCCCC[C@H](NC(=O)[C@@H](N)CSSC[C@H](N)C(=O)N[C@@H](CCCCNC(=O)c3cc(-c4ccc(OC)cc4C)cc(CN4CCN(CC(=O)O)CCN(CC(=O)O)CCN(CC(=O)O)CC4)n3)C(=O)N[C@@H](CCCNC(=N)N)C(=O)N[C@@H](CCCCN)C(=O)N[C@@H](CCCCN)C(=O)N[C@@H](CCCNC(=N)N)C(=O)N[C@@H](CCCNC(=N)N)C(=O)N[C@@H](CCC(N)=O)C(=O)N[C@@H](CCCNC(=N)N)C(=O)N[C@@H](CCCNC(=N)N)C(=O)N[C@@H](CCCNC(=N)N)C(=O)NCC(N)=O)C(=O)N[C@@H](CCCNC(=N)N)C(=O)N[C@@H](CCCCN)C(=O)N[C@@H](CCCCN)C(=O)N[C@@H](CCCNC(=N)N)C(=O)N[C@@H](CCCNC(=N)N)C(=O)N[C@@H](CCC(N)=O)C(=O)N[C@@H](CCCNC(=N)N)C(=O)N[C@@H](CCCNC(=N)N)C(=O)N[C@@H](CCCNC(=N)N)C(=O)NCC(N)=O)c2)c(C)c1 [dTAT[Tb·L-^MeAr-OMe]] (I: H-CK(X3)RKKRRQRRRG-NH2 / II: H-CK(X3)RKKRRQRRRG-NH2; disulfide I:1-II:1) | – | successful cytosolic delivery | 18 ± 3 | – |
